{"source": "patent US9371265B2", "about": "“Compositions and methods related to inhibitors of JAK kinase” (EP PHARMA, INC., priority 2012, dated 2016)", "key": {"BRAF(V600E)": {"target": "BRAF(V600E) (Homo sapiens, UniProt P15056, V600E)", "sequence (P15056 whole entry V600E)": "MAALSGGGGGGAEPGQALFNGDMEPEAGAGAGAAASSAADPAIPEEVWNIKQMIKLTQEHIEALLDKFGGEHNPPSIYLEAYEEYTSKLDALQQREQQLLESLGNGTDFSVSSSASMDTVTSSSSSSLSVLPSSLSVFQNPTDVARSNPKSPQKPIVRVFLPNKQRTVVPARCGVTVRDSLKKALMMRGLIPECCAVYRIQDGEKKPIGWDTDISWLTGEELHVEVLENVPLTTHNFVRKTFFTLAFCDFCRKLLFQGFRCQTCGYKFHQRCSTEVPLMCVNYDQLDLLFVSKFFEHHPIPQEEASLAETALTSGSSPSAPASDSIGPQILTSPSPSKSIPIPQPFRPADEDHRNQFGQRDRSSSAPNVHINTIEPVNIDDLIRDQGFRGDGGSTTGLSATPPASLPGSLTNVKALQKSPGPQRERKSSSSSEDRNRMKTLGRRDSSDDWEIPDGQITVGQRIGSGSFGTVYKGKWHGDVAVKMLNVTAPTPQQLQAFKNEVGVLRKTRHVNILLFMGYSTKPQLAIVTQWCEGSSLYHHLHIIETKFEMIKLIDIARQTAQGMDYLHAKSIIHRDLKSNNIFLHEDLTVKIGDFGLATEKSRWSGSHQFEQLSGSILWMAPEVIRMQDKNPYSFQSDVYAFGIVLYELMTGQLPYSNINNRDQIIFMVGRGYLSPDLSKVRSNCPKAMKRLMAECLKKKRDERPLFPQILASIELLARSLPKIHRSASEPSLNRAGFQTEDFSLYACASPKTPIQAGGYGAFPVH", "assay": "Kinase panel: BRAF(V600E)", "assay_type": "biochemical", "conditions": "10 μM EP009", "experimental": "(§1) Achieving JAK3 selectivity remains a significant challenge in the development of new small molecules for the treatment of cancer and immune-derived diseases. As such, the inventors employed cell-based screening assays of small-molecule libraries based upon the chemical scaffold of the established JAK3 inhibitor NC1153 (Stepkowski et al., J Immunol. (2005), 175(7):4236-4246) EP009 (FIG. 2A) was selected as a lead compound due to improved intrinsic stability (>95% purity in various solvents at 37° C. for 24 hours; FIG. 3) and high-degree of JAK3 selectivity. To test JAK3 versus JAK2 specificity of EP009, the IL-2/JAK3-dependent Kit225, and IL-3/JAK2-dependent BaF/3 cell lines were used. Kit225 and BaF/3 cells growing in the presence of IL-2 or IL-3, respectively, were treated with ascending concentrations of EP009 for 12 hours and cellular JAK3 and JAK2 tyrosine phosphorylation levels detected by Western blot analysis (FIGS. 2B and 2C). Following densitometric analysis, EP009 was determined to dose-dependently reduce IL-2-mediated JAK3 tyrosine phosphorylation with a cellular 50% inhibitory concentration (IC50) between 10 and 20 μM (FIG. 2B). […] To globally evaluate specificity, the inhibitory activity of EP009 was measured against a panel of protein kinases distributed throughout the kinome using the scanEDGE profiling service (KINOMEscan). […]"}, "MEK1": {"target": "MEK1 (Homo sapiens, UniProt Q02750)", "sequence (Q02750 whole entry)": "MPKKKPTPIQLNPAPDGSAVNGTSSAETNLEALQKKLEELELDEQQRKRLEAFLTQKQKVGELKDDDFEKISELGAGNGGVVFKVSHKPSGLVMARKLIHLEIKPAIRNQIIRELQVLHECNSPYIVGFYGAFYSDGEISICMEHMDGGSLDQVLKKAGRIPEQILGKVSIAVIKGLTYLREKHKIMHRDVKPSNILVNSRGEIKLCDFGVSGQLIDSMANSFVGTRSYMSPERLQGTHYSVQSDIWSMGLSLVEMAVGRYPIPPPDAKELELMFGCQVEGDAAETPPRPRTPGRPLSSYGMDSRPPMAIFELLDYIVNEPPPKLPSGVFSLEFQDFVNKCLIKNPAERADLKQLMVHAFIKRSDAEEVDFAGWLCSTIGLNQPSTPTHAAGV", "assay": "Kinase panel: MEK1", "assay_type": "biochemical", "conditions": "10 μM EP009", "experimental": "as §1"}, "RET": {"target": "RET (Homo sapiens, UniProt P07949)", "assay": "Kinase panel: RET", "assay_type": "biochemical", "conditions": "10 μM EP009", "experimental": "as §1"}, "STAT3": {"test_system": "STAT3", "assay": "Phospho-STAT3 in SU-DHL-1 cells (Luminex multiplex)", "assay_type": "cell-based, human", "conditions": "0-40 μM, 12 hours", "description": "(§2) FIGS. 6A-6B. EP009 treatment disrupts constitutive JAK3/STAT3 pathway activation and down-regulates CD30 cell surface expression in human ALCL cells. (A) Kit225 (lane a), SUP-M2 (lane b), Karpas299 (lane c), DEL (lane d) and SU-DHL-1 (lane e) total cell lysates were separated by 7.5% SDS-PAGE (upper panel) or were immunoprecipitated (IP) with JAK3 antibodies (lower panel) and separated on 7.5% SDS-PAGE, and then subjected to Western blot (WB) analysis with the indicated antibodies. (B) SU-DHL-1 cells were treated with vehicle (PBS; lane a) or increasing amounts of EP009 (0-40 μM; lanes b-e) for 12 hours. Cells were then lysed, clarified, and immunoprecipitated (IP) with anti-JAK3 (α-JAK3), and subjected to Western blot (WB) analysis with anti-phosphotyrosine (α-pY). Blots were stripped and reprobed with α-JAK3 to verify equivalent protein loading. (C) SU-DHL-1 cells were treated with vehicle (PBS) or increasing amounts of EP009 (0-40 μM) for 12 hours. […] Values represent pSTAT mean fluorescence intensity (MFI) normalized to corresponding GAPDH MFI, while error bars represent the standard deviation (n=2). Statistical significance was determined using Student's t-test. […] Cells were then analyzed by flow cytometry for CD30 expression. […]"}, "CD30": {"test_system": "CD30", "assay": "CD30 cell surface expression in SU-DHL-1 cells (flow cytometry)", "assay_type": "cell-based, human", "conditions": "24 hours", "description": "as §2, with “(α-pY).” for “(α-pY). Blots were stripped and reprobed with α-JAK3 to verify equivalent protein loading. (C) SU-DHL-1 cells were treated with vehicle (PBS) or increasing amounts of EP009 (0-40 μM) for 12 hours.”\nCells were treated in the absence or presence of the indicated concentrations of EP009 for 24 hours, and stained with FITC-labeled mouse anti-human CD30 (Millipore). Stained cells were analyzed by flow cytometry (Cytomics FC500, Beckman Coulter) and quantitated with CXP analysis software version 2.2 (Beckman Coulter) as previously described.24"}, "MET": {"target": "MET (Homo sapiens, UniProt P08581)", "sequence (P08581 25-1390)": "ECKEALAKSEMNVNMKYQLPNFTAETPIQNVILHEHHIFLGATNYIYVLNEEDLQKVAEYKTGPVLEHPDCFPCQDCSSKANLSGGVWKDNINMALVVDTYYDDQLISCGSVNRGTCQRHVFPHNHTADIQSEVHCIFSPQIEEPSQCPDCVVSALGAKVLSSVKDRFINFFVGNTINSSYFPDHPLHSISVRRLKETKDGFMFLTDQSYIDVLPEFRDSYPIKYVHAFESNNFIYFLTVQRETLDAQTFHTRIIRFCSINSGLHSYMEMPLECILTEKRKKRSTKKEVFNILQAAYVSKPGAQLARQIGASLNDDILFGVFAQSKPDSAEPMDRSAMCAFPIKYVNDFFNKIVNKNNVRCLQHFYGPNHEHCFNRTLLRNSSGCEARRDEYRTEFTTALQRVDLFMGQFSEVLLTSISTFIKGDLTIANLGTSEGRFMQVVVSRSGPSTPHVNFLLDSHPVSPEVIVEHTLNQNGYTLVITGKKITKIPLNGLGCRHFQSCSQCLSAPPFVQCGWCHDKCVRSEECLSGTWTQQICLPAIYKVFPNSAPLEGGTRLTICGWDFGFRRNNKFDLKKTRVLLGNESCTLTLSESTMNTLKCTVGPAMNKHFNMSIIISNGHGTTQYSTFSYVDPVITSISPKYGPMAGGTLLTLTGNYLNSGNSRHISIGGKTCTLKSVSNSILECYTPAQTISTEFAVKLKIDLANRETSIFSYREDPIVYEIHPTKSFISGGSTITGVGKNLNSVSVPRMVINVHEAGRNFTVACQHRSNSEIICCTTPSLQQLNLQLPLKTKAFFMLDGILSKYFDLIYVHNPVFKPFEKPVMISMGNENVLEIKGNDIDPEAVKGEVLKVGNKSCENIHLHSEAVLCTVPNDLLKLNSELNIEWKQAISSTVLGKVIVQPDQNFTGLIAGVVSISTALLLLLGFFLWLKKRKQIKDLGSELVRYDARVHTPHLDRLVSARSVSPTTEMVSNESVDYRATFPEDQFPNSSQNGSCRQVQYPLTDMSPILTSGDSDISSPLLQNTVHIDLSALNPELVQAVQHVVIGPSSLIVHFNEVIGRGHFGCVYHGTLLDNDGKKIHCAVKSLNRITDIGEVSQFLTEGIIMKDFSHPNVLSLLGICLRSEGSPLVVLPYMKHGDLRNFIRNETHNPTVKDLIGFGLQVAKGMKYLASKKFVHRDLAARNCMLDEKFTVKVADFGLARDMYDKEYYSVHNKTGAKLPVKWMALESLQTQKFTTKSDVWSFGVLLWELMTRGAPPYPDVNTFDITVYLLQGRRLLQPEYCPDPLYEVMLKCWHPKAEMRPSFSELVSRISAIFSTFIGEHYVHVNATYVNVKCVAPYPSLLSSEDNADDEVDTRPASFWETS", "assay": "Kinase panel: MET", "assay_type": "biochemical", "conditions": "10 μM EP009", "experimental": "as §1"}, "MEK2": {"target": "MEK2 (Homo sapiens, UniProt P36507)", "assay": "Kinase panel: MEK2", "assay_type": "biochemical", "conditions": "10 μM EP009", "experimental": "as §1"}, "PCTK1": {"target": "PCTK1 (Homo sapiens, UniProt Q00536)", "sequence (Q00536 whole entry)": "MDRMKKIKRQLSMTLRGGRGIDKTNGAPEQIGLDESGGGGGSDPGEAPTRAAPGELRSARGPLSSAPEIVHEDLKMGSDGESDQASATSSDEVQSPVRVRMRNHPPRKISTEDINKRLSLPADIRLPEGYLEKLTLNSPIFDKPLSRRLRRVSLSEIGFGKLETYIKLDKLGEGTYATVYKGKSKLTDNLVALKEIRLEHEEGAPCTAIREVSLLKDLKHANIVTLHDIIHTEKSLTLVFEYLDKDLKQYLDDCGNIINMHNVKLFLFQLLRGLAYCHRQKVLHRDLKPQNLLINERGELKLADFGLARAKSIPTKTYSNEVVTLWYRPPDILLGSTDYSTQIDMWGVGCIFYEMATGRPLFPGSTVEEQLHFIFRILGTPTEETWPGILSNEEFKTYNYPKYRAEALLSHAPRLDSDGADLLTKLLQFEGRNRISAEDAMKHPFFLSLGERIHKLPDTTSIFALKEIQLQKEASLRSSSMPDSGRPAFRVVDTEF", "assay": "Kinase panel: PCTK1", "assay_type": "biochemical", "conditions": "10 μM EP009", "experimental": "as §1"}, "ERBB2": {"target": "ERBB2 (Homo sapiens, UniProt P04626)", "sequence (P04626 23-1255)": "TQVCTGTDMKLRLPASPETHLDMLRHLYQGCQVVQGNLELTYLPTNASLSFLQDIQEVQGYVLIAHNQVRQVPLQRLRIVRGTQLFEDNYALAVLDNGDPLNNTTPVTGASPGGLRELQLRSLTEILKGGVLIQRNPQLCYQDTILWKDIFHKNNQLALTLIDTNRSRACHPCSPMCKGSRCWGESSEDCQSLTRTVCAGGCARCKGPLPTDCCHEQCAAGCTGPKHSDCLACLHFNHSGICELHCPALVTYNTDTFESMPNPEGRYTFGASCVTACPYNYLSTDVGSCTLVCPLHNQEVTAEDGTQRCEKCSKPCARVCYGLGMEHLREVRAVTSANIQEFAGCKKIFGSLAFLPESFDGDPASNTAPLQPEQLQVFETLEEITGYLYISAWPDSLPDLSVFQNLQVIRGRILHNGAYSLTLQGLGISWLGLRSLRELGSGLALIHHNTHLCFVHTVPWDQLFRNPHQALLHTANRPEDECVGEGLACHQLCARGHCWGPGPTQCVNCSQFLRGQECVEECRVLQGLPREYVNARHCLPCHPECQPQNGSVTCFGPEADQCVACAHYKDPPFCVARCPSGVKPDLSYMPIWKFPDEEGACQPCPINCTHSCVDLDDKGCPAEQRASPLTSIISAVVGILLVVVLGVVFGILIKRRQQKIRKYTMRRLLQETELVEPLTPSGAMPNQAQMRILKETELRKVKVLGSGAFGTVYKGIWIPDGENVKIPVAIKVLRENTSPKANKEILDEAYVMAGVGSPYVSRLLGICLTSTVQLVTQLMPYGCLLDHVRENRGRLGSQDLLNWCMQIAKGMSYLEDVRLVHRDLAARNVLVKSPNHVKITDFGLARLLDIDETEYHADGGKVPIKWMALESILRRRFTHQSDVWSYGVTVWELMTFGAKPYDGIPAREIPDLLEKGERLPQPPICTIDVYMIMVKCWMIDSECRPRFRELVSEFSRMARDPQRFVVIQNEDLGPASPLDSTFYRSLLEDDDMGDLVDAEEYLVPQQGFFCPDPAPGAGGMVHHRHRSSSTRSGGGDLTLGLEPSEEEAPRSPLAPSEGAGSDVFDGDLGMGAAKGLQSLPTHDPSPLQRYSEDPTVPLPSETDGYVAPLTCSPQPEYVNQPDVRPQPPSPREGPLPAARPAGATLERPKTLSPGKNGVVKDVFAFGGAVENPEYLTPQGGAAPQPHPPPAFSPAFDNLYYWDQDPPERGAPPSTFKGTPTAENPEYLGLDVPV", "assay": "Kinase panel: ERBB2", "assay_type": "biochemical", "conditions": "10 μM EP009", "experimental": "as §1"}, "DCAMKL1": {"target": "DCAMKL1 (Homo sapiens, UniProt O15075)", "sequence (O15075 whole entry)": "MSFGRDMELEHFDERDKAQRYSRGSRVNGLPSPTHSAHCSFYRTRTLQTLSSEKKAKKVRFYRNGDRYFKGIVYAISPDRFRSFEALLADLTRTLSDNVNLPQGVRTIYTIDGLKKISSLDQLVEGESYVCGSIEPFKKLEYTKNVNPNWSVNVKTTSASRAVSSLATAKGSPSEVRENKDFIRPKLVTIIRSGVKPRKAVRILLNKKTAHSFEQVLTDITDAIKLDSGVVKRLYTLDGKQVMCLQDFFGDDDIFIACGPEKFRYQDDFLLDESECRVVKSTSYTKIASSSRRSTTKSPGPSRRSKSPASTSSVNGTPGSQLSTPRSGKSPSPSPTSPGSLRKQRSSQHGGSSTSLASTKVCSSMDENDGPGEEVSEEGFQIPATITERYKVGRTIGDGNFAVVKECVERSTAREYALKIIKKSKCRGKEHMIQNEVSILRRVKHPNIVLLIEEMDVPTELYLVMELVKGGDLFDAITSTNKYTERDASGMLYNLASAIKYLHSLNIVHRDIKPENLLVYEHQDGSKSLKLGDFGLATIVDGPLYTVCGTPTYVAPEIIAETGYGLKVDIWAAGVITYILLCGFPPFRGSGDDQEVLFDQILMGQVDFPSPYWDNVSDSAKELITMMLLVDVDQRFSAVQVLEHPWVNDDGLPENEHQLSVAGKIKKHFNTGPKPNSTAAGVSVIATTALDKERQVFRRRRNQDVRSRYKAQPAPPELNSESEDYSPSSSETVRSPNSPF", "assay": "Kinase panel: DCAMKL1", "assay_type": "biochemical", "conditions": "10 μM EP009", "experimental": "as §1"}}, "data": [{"molecule": "C=C1CCCCCCCCCC(CO)C1=O", "note": "(stereo not shown) [EP009, 2-(Hydroxymethyl)-12-methylenecyclododecanone]", "values": [{"measurement": "Kinase Activity (% of Control)", "setting": "BRAF(V600E)", "value": "76 % of Control"}, {"measurement": "Kinase Activity (% of Control)", "setting": "MEK1", "value": "71 % of Control"}, {"measurement": "Kinase Activity (% of Control)", "setting": "RET", "value": "100 % of Control"}, {"measurement": "effect on phospho-STAT3 levels", "setting": "STAT3", "value": "dose-dependent inhibition"}, {"measurement": "effect on CD30 surface expression", "setting": "CD30", "value": "dose-dependent CD30 down-regulation"}, {"measurement": "Kinase Activity (% of Control)", "setting": "MET", "value": "89 % of Control"}, {"measurement": "Kinase Activity (% of Control)", "setting": "MEK2", "value": "84 % of Control"}, {"measurement": "Kinase Activity (% of Control)", "setting": "PCTK1", "value": "85 % of Control"}, {"measurement": "Kinase Activity (% of Control)", "setting": "ERBB2", "value": "100 % of Control"}, {"measurement": "Kinase Activity (% of Control)", "setting": "DCAMKL1", "value": "100 % of Control"}]}]}
